From paper PMC9177597, “Structural basis of substrate recognition and translocation by human very long-chain fatty acid transporter ABCD1” (Nature Communications, 2022)
Positions count from the first letter of the chain named.

How the values were obtained:
Assay in all cases: substrate-stimulated ATPase assay (colorimetric Pi release)
Assay type in all cases: biochemical
chABCD1 (chimeric ABCD1) [1] = target: T1, chABCD1 (chimeric ABCD1) (Homo sapiens, UniProt P33897, DEL694-745)
T1 construct: single polypeptide: N-terminal FLAG tag, PMP-4 residues 1-65 replacing human ABCD1 residues 1-63, then human ABCD1 64-745; HEK293F; homodimer; LMNG/CHS for assays, digitonin for cryo-EM; with PMP-4 (peroxisomal membrane protein related, ABCD1 homolog, Caenorhabditis elegans; N-terminal segment fused to the target chain)
T1 sequence (P33897 64-693): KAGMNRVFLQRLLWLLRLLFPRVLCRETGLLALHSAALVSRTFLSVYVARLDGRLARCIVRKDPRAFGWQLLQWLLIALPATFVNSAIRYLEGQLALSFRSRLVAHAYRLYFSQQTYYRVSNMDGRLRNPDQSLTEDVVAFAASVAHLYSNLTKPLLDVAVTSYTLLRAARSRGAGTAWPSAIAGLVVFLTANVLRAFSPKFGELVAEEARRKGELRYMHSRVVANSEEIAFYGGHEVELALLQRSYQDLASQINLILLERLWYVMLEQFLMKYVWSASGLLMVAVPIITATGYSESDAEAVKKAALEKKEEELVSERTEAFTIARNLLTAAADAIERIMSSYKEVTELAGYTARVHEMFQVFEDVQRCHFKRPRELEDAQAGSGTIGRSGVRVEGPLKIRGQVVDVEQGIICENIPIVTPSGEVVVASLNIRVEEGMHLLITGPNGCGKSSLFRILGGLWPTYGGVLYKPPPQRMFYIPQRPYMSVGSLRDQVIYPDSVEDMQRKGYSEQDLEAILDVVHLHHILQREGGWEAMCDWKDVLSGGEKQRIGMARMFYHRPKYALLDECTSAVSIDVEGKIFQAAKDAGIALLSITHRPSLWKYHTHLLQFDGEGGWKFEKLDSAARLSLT

chABCD1 (chimeric ABCD1) [2] = target: T2, chABCD1 (chimeric ABCD1) (Homo sapiens, UniProt P33897, R152A); conditions: 5 μM C22:0-CoA, 2 mM ATP, 2 mM MgCl2, LMNG + CHS, pH 7.5, 37 °C
T2 construct: single polypeptide: N-terminal FLAG tag, PMP-4 residues 1-65 replacing human ABCD1 residues 1-63, then human ABCD1 64-745; HEK293F; homodimer; LMNG/CHS for assays, digitonin for cryo-EM; with PMP-4 (peroxisomal membrane protein related, ABCD1 homolog, Caenorhabditis elegans; N-terminal segment fused to the target chain)
T2 sequence (P33897 64-745 R152A): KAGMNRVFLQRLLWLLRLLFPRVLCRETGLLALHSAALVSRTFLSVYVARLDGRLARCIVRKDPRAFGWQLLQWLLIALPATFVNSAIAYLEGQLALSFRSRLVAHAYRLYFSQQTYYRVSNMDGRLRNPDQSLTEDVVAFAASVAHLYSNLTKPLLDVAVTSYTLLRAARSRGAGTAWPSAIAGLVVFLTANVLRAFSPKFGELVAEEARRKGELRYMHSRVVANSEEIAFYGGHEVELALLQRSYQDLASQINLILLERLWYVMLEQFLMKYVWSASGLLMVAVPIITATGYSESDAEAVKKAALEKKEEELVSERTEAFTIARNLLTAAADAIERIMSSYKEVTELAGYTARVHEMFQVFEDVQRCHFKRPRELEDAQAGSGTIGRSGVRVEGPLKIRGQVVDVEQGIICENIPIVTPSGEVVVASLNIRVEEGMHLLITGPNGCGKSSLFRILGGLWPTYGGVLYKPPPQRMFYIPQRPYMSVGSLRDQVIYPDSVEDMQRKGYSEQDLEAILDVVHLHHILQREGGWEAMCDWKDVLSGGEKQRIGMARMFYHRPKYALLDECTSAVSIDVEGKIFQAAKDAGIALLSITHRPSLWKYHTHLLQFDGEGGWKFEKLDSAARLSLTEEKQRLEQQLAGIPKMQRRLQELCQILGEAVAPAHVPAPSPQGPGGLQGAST

chABCD1 (chimeric ABCD1) [3] = target: T3, chABCD1 (chimeric ABCD1) (Homo sapiens, UniProt P33897, T693M); conditions: 2 mM ATP, 2 mM MgCl2, LMNG + CHS, pH 7.5, 37 °C, varying C22:0-CoA
T3 construct: single polypeptide: N-terminal FLAG tag, PMP-4 residues 1-65 replacing human ABCD1 residues 1-63, then human ABCD1 64-745; HEK293F; homodimer; LMNG/CHS for assays, digitonin for cryo-EM; with PMP-4 (peroxisomal membrane protein related, ABCD1 homolog, Caenorhabditis elegans; N-terminal segment fused to the target chain)
T3 sequence (P33897 64-745 T693M): T2 sequence (P33897 64-745 R152A) with A89R, T630M

chABCD1 (chimeric ABCD1) [4] = target: T4, chABCD1 (chimeric ABCD1) (Homo sapiens, UniProt P33897, R401Q); conditions: 5 μM C22:0-CoA, 2 mM ATP, 2 mM MgCl2, LMNG + CHS, pH 7.5, 37 °C
T4 construct: single polypeptide: N-terminal FLAG tag, PMP-4 residues 1-65 replacing human ABCD1 residues 1-63, then human ABCD1 64-745; HEK293F; homodimer; LMNG/CHS for assays, digitonin for cryo-EM; with PMP-4 (peroxisomal membrane protein related, ABCD1 homolog, Caenorhabditis elegans; N-terminal segment fused to the target chain)
T4 sequence (P33897 64-745 R401Q): T2 sequence (P33897 64-745 R152A) with A89R, R338Q

EC50 (chABCD1 (chimeric ABCD1) [1]): ~4 µM
SMILES: CCCCCCCCCCCCCCCCCCCCCC(=O)SCCNC(=O)CCNC(=O)[C@H](O)C(C)(C)COP(=O)(O)OP(=O)(O)OC[C@H]1O[C@@H](n2cnc3c(N)ncnc32)[C@H](O)[C@@H]1OP(=O)(O)O [C22:0-CoA]
relative ATPase activity (chABCD1 (chimeric ABCD1) [2]): displayed significantly decreased substrate-simulated ATPase activity, compared to the wild-type | ATPase activity (chABCD1 (chimeric ABCD1) [3]): ATPase activity assays of T693M mutant, which showed an almost non-detectable activity | relative ATPase activity (chABCD1 (chimeric ABCD1) [4]): displayed significantly decreased substrate-simulated ATPase activity, compared to the wild-type
